According to ChEMBL document CHEMBL1201862, “PubChem BioAssay data set” (2004):
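Where inhibition never reached the appropriate level, the endpoint shown equals the highest concentration tested. Otherwise, values were interpolated linearly from a five-concentration, 48-hour dose response in 96-well plates. The concentration for 50% growth inhibition is given as GI50.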 Active and inactive are the calls of the source. Rule as the data show it: active = GI50 up to about 1.1 µM and inactive = higher.

Assays:
Assay in all cases: NCI tumour cell line growth inhibition, 48 h
[1] = test system: T47D
[2] = test system: M14
[3] = test system: BT-549
[4] = test system: LOX IMVI
[5] = test system: SNB-19
[6] = test system: MDA-MB-435
[7] = test system: PC-3
[8] = test system: COLO 205
[9] = test system: MOLT-4
[10] = test system: OVCAR-5
[11] = test system: SF-295
[12] = test system: M19-MEL
[13] = test system: Hs-578T
[14] = test system: A498
[15] = test system: NCI/ADR-RES
[16] = test system: HL-60
[17] = test system: HOP-62
[18] = test system: 786-0
[19] = test system: IGROV-1
[20] = test system: HCT-116

COc1ccc2c(c1)[C@@H](NC(C)=O)CCc1cc(OC)c(OC)c(OC)c1-2
GI50 [1]: > 100 µM (inactive) | GI50 [2]: 0.0166 µM (active) | GI50 [3]: 1.85 µM (inactive) | GI50 [4]: 0.018 µM (active) | GI50 [5]: 0.0222 µM (active) | GI50 [6]: 0.0132 µM (active) | GI50 [7]: 0.0251 µM (active) | GI50 [8]: 0.0135 µM (active) | GI50 [9]: 0.0206 µM (active) | GI50 [10]: 1.5 µM (inactive) | GI50 [11]: 0.0151 µM (active) | GI50 [12]: < 0.0154 µM (active) | GI50 [13]: 0.0169 µM (active) | GI50 [14]: 0.0143 µM (active) | GI50 [15]: 0.0198 µM (active) | GI50 [16]: < 0.012 µM (active) | GI50 [17]: 0.0216 µM (active) | GI50 [18]: 0.019 µM (active) | GI50 [19]: 0.0173 µM (active) | GI50 [20]: 0.0148 µM (active)

CS(=O)(=O)OCCCCOS(C)(=O)=O [BUSULFAN]
GI50 [1]: > 250 µM (inactive) | GI50 [2]: 236 µM (inactive) | GI50 [3]: > 1000 µM (inactive) | GI50 [4]: 221 µM (inactive) | GI50 [5]: 222 µM (inactive) | GI50 [6]: > 1000 µM (inactive) | GI50 [7]: 235 µM (inactive) | GI50 [8]: 222 µM (inactive) | GI50 [9]: 124 µM (inactive) | GI50 [10]: > 250 µM (inactive) | GI50 [11]: 210 µM (inactive) | GI50 [12]: 226 µM (inactive) | GI50 [13]: > 250 µM (inactive) | GI50 [14]: 233 µM (inactive) | GI50 [15]: 217 µM (inactive) | GI50 [16]: 125 µM (inactive) | GI50 [17]: 187 µM (inactive) | GI50 [18]: 228 µM (inactive) | GI50 [19]: > 212 µM (inactive) | GI50 [20]: 238 µM (inactive)

Clc1ccc(C[P+]2(c3ccccc3)CCCCC2)cc1.[O-][Cl+3]([O-])([O-])[O-]
GI50 [2]: 53.8 µM (inactive) | GI50 [4]: 77.3 µM (inactive) | GI50 [5]: 66.8 µM (inactive) | GI50 [8]: 17.9 µM (inactive) | GI50 [9]: 86.5 µM (inactive) | GI50 [10]: > 100 µM (inactive) | GI50 [11]: > 100 µM (inactive) | GI50 [12]: 28.7 µM (inactive) | GI50 [14]: > 100 µM (inactive) | GI50 [16]: 24.4 µM (inactive) | GI50 [17]: > 100 µM (inactive) | GI50 [18]: > 100 µM (inactive) | GI50 [19]: > 100 µM (inactive) | GI50 [20]: 60.1 µM (inactive)

Nc1ccccc1SC(/C=C/NNC1=NN=C(c2ccccc2)C(c2ccccc2)N1)c1ccccc1 (stereo unspecified)
GI50 [2]: 12.4 µM (inactive) | GI50 [4]: 12.7 µM (inactive) | GI50 [5]: 18.7 µM (inactive) | GI50 [8]: 15.6 µM (inactive) | GI50 [9]: 3.64 µM (inactive) | GI50 [10]: 20.8 µM (inactive) | GI50 [11]: 12.1 µM (inactive) | GI50 [12]: 11.4 µM (inactive) | GI50 [14]: 20.4 µM (inactive) | GI50 [16]: 3.32 µM (inactive) | GI50 [17]: 19.5 µM (inactive) | GI50 [18]: 12.2 µM (inactive) | GI50 [19]: 15.4 µM (inactive)

CCn1cc(C(=O)O)c(=O)c2cc(F)c(N3CCNCC3)nc21 [ENOXACIN]
GI50 [2]: > 100 µM (inactive) | GI50 [4]: 86.3 µM (inactive) | GI50 [5]: > 100 µM (inactive) | GI50 [8]: > 100 µM (inactive) | GI50 [9]: 67.1 µM (inactive) | GI50 [10]: > 100 µM (inactive) | GI50 [11]: > 100 µM (inactive) | GI50 [12]: 87.9 µM (inactive) | GI50 [14]: > 100 µM (inactive) | GI50 [16]: > 100 µM (inactive) | GI50 [17]: > 100 µM (inactive) | GI50 [18]: > 100 µM (inactive) | GI50 [19]: > 100 µM (inactive) | GI50 [20]: 65.6 µM (inactive)

COc1cc2c(c(OC(C)=O)c1OC(C)=O)-c1ccc(SC)c(=O)cc1C(NC(C)=O)CC2 (stereo unspecified)
GI50 [2]: 2.96 µM (inactive) | GI50 [4]: 1.13 µM (inactive) | GI50 [5]: 2.65 µM (inactive) | GI50 [8]: 0.998 µM (active) | GI50 [9]: 1.52 µM (inactive) | GI50 [10]: > 50.1 µM (inactive) | GI50 [11]: 2.23 µM (inactive) | GI50 [12]: 1.39 µM (inactive) | GI50 [14]: 4.83 µM (inactive) | GI50 [16]: 0.375 µM (active) | GI50 [17]: 7.59 µM (inactive) | GI50 [18]: 3.87 µM (inactive) | GI50 [19]: 4.45 µM (inactive) | GI50 [20]: 1.36 µM (inactive)

Cc1ccc(C2=[N+]([O-])c3ccccc3C2=O)cc1
GI50 [2]: 21.7 µM (inactive) | GI50 [4]: 16.8 µM (inactive) | GI50 [5]: 31.9 µM (inactive) | GI50 [8]: 28.9 µM (inactive) | GI50 [9]: 24.7 µM (inactive) | GI50 [10]: 52.6 µM (inactive) | GI50 [11]: 28.8 µM (inactive) | GI50 [12]: > 36.1 µM (inactive) | GI50 [14]: > 100 µM (inactive) | GI50 [16]: 7.98 µM (inactive) | GI50 [17]: > 100 µM (inactive) | GI50 [18]: 24 µM (inactive) | GI50 [19]: 15.7 µM (inactive) | GI50 [20]: 23.6 µM (inactive)

CC1=C(C(=O)Nc2cc(=O)n(C)c(=O)n2C)C(c2ccc([N+](=O)[O-])cc2)C(C(=O)Nc2cc(=O)n(C)c(=O)n2C)=C(C)N1
GI50 [2]: > 100 µM (inactive) | GI50 [4]: 54.6 µM (inactive) | GI50 [5]: > 100 µM (inactive) | GI50 [8]: > 100 µM (inactive) | GI50 [9]: 52.4 µM (inactive) | GI50 [10]: > 100 µM (inactive) | GI50 [11]: > 100 µM (inactive) | GI50 [12]: > 100 µM (inactive) | GI50 [14]: > 100 µM (inactive) | GI50 [16]: > 100 µM (inactive) | GI50 [17]: 18.1 µM (inactive) | GI50 [18]: 84.9 µM (inactive) | GI50 [19]: > 100 µM (inactive) | GI50 [20]: 74.3 µM (inactive)

O=S1(=O)c2cc(S(=O)(=O)n3ccnc3)ccc2NC2=NCCCN21
GI50 [2]: 26.7 µM (inactive) | GI50 [4]: 38.5 µM (inactive) | GI50 [5]: 78.5 µM (inactive) | GI50 [8]: 18.6 µM (inactive) | GI50 [9]: 40.7 µM (inactive) | GI50 [10]: 48.1 µM (inactive) | GI50 [11]: 29.4 µM (inactive) | GI50 [12]: 35.3 µM (inactive) | GI50 [14]: 28 µM (inactive) | GI50 [16]: 15.5 µM (inactive) | GI50 [17]: 22 µM (inactive) | GI50 [18]: 32.2 µM (inactive) | GI50 [19]: 40.7 µM (inactive) | GI50 [20]: 29.7 µM (inactive)

FC(F)(F)c1ccccc1/C=N/C12CC3CC(CC(C3)C1)C2
GI50 [2]: > 100 µM (inactive) | GI50 [4]: > 100 µM (inactive) | GI50 [5]: 0.986 µM (active) | GI50 [8]: > 100 µM (inactive) | GI50 [9]: > 100 µM (inactive) | GI50 [10]: > 100 µM (inactive) | GI50 [11]: > 100 µM (inactive) | GI50 [12]: > 100 µM (inactive) | GI50 [14]: > 100 µM (inactive) | GI50 [16]: > 100 µM (inactive) | GI50 [17]: > 100 µM (inactive) | GI50 [18]: > 100 µM (inactive) | GI50 [19]: > 100 µM (inactive) | GI50 [20]: > 100 µM (inactive)
